Assay results: ChEMBL document CHEMBL4321850, “Targeting Aryl hydrocarbon receptor for next-generation immunotherapies: Selective modulators (SAhRMs) versus rapidly metabolized ligands (RMAhRLs)” (Eur J Med Chem, 2020)

Columns and labels:
[1] = biological target: T1, Aryl hydrocarbon receptor (Mus musculus, UniProt P30561); test: Displacement of [3H]TCDD from mouse AhR
T1 sequence (P30561 whole entry): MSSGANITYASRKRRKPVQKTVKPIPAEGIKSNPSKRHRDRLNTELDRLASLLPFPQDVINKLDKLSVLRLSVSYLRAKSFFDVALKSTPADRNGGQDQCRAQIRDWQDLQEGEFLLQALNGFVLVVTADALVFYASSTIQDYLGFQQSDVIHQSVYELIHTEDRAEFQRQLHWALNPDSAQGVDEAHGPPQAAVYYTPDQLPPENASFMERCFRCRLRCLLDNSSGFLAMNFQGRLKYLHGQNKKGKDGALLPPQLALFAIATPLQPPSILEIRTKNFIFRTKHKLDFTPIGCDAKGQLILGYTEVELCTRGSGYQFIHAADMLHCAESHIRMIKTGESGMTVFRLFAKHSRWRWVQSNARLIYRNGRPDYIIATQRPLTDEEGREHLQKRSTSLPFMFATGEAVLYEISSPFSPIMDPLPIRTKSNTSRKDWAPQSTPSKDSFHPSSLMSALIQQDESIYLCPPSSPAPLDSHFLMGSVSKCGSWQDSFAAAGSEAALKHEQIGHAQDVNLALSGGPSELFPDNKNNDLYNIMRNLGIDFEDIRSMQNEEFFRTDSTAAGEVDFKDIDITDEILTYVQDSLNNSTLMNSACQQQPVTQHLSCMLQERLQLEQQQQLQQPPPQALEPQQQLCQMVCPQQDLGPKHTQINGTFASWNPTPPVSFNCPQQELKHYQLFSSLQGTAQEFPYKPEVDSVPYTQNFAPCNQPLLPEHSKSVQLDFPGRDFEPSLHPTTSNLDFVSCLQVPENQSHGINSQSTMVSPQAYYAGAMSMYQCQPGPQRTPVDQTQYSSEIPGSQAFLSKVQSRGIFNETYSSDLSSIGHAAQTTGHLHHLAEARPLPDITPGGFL

[2] = biological target: T1, Aryl hydrocarbon receptor; test: Displacement of 2-azido-3-[125I]7,8-dibromodibenzo-pdioxin from C57BL/6J mouse liver AhR incubated for 20 mins by gamma counting based autoradiography
[3] = biological target: T2, Aryl hydrocarbon receptor (Homo sapiens, UniProt P35869); test: Displacement of [3H] 3-MC from AhR (unknown origin)
T2 sequence (P35869 whole entry): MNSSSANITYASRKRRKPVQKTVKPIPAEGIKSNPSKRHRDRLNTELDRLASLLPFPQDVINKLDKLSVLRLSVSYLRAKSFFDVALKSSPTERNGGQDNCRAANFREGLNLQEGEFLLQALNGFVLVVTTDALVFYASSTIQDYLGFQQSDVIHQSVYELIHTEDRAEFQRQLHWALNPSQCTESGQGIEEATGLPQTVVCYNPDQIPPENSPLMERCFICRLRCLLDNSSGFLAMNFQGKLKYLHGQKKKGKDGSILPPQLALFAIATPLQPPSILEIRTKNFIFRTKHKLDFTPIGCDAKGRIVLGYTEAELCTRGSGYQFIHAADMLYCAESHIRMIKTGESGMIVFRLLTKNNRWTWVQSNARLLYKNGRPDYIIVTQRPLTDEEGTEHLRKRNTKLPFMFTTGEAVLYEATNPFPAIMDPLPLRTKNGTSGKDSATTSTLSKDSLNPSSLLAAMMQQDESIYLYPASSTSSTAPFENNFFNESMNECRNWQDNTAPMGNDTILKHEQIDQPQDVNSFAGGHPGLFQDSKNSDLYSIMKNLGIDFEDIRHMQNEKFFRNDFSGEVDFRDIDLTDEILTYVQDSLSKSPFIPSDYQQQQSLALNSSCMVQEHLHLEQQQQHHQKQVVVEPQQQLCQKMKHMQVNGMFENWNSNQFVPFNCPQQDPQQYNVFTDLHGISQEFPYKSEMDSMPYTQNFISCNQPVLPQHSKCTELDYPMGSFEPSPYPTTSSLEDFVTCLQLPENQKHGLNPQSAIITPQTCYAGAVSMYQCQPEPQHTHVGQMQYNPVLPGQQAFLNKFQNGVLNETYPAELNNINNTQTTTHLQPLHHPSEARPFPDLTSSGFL

[4] = biological target: T2, Aryl hydrocarbon receptor; test: Binding affinity to AhR (unknown origin)
[5] = biological target: T2, Aryl hydrocarbon receptor; test: Binding affinity to AhR (unknown origin) relative to TCDD
[6] = biological target: T1, Aryl hydrocarbon receptor; test: Displacement of 2-azido-3-[125I]7,8-dibromodibenzo-pdioxin from C57BL/6J mouse liver AhR relative to TCDD
[7] = biological target: T1, Aryl hydrocarbon receptor; test: Displacement of 2-azido-3-[125I]7,8-dibromodibenzo-pdioxin from C57BL/6J mouse liver AhR
[8] = biological target: T2, Aryl hydrocarbon receptor; test: Inhibition of AhR (unknown origin)

## COC(=O)c1csc(C(=O)c2c[nH]c3ccccc23)n1
[1]
  Kd: 3 nM

## COc1ccc(-c2cc(=O)c3ccc4ccccc4c3o2)cc1OC
[2]
  IC50: 21 nM

## O=c1c2cccc3cccc(c32)c2nc3ccc(Cl)cc3n12
[3]
  IC50: 2.6 nM

## Cc1cc(Cl)cc2c1oc1cc(Cl)cc(Cl)c12
[4]
  Kd: 0.13 nM
[5]
  EC50: 49 nM

## O=c1cc(-c2ccccc2)oc2c1ccc1ccccc12 [ALPHA-NAPHTHOFLAVONE]
[2]
  IC50: 25 nM

## c1ccc2c(Cc3c[nH]c4ccccc34)c[nH]c2c1 [ARUNDINE]
[6]
  EC50: 78000 nM
[7]
  Kd: 90 nM

## Nc1ccccc1C(=O)C[C@H](N)C(=O)O [L-KYNURENINE]
[8]
  Ki: 21600 nM
